Assay results: US5882671A, “Anxiolytic agents” (Eli Lilly and Company, priority 1997, dated 1999)
Entries after “also recorded” stand apart in the source; their conditions may differ. Counter-ions that a name gives are not always drawn. Like-named read-outs stand apart in the source and are kept apart here.

Key:
[1] = system: natural aversion to height and open spaces; settings: reference anxiolytics, cited from earlier work
[2] = system: fear potentiated startle response; settings: reference anxiolytics, presentation of light, cited from earlier work
[3] = system: anxiety disorders; settings: in vivo; cited from earlier work
[4] = system: negatively coupled cAMP-linked metabotropic glutamate receptors; settings: Schoepp and Johnson, Neuropharmacology Vol. 32; cited from earlier work
[5] = system: fear potentiated startle response; test: fear potentiated startle model of anxiety; assay type: in vivo, Male Long Evans rats; settings: statement in words
Description: In the fear potentiated startle model, animals are exposed to a neutral stimulus such as light (conditioned stimulus) with an aversive stimulus such as a shock (unconditioned stimulus). Following conditioning, when the animals are presented with a loud acoustic stimulus, larger startle responses are elicited when the startle stimulus is preceded by light. The difference in amplitude between the startle response when conditioned animals are exposed to the aversive stimulus paired with a neutral stimulus and the startle response when the conditioned animal is exposed only to the aversive stimulus is known as fear potentiated startle. The amplitude of the startle response when the animal is exposed only to the aversive stimulus is known as the baseline startle. Test compounds which are effective in this model decrease the fear potentiated startle response. It is emphasized that what is being determined experimentally is the difference between the startle response with paired stimuli and the baseline startle; test compounds which are anxiolytics may increase, decrease or leave unchanged the baseline startle response. (Davis, TiPS, January 1992 [Vol. 13], 35-41).
(§1) Male Long Evans rats (180-400 g) or male NIH Swiss mice (18-35 g) were obtained from Harlan Sprague-Dawley, Cumberland, Ind., U.S.A. and acclimated at least 3 days before testing. Animals were housed at 23°±2° C. (relative humidity 30% to 70%) and given Purina Certified Rodent Chow and water ad libitum. The photoperiod was 12 hours of light and 12 hours of dark, with dark onset at approximately 1800 hours.
(§2) Test compounds were dissolved in a vehicle of purified water and neutralized with 5N NaOH to a pH of 7-8 when applicable. […] Control animals received the respective vehicle.
SL-LAB (San Diego Instruments, San Diego, Calif.) chambers were used for conditioning sessions and for the production and recording of startle responses. A classical conditioning procedure was used to produce potentiation of startle responses. Briefly, on the first 2 days, rats were placed into dark startle chambers in which shock grids were installed. Following a 5-minute acclimation period, each rat received a 1 mA electric shock (500 ms) preceded by a 5 second presentation of light (15 watt) which remained on for the duration of the shock. Ten presentations of the light and shock were given in each conditioning session, […] A block of 10 consecutive presentations of acoustic startle stimuli (110 dB, non-light-paired) were presented at the beginning of the session in order to minimize the influences of the initial rapid phase of habituation to the stimulus. […]

[6] = system: negatively coupled cAMP-linked metabotropic glutamate receptors; test: selectivity of agonism at metabotropic glutamate receptors
Description: As described previously herein, it is preferred to use an agonist which acts selectively at negatively coupled cAMP-linked metabotropic glutamate receptors (relative to other glutamate receptors) in the methods according to the invention. Such an agonist may be a single compound, for example one of the four compounds named hereinabove, or two or more compounds which, in combination function as an agonist which acts selectively at negatively coupled cAMP-linked metabotropic glutamate receptors.

[7] = system: natural aversion to height and open spaces; test: automated elevated plus maze model of anxiety; assay type: in vivo, male NIH Swiss mice
Protocol: The elevated plus maze model is based upon the natural aversion of rodents to height and open spaces.
as §1, §2
Construction of the elevated plus-maze was based on a design validated for mice by Lister (1987). The entire maze was made of clear Plexiglas. The maze was comprised of two open arms (30×5×0.25 cm) and two enclosed arms (30×5×15 cm). The floor of each maze arm was corrugated to provide texture. The arms extended from a central platform and angled at 90 degrees from each other. The maze was elevated to a height of 45 cm above the floor and illuminated by red light. Individual infrared photocells were mounted along each arm of the maze to monitor closed, open, or nosepoke activity. Mice were individually placed on the central platform of the maze and the number of closed arm, open arm, and nosepoke (poking head only into open arm from closed arm of maze) counts were recorded and used as a measure of arm entries and time spent on various sections of the maze over a five-minute test period.

CN1C(=O)CN=C(c2ccccc2)c2cc(Cl)ccc21 [Diazepam]
reduction of fear of open spaces in the elevated plus maze model [1]: reducing the fear of open spaces | reduction of fear (increased startle response) in the fear potentiated startle model [2]: effective at reducing the fear

O=C1CC2(CCCC2)CC(=O)N1CCCCN1CCN(c2ncccn2)CC1 [Buspirone hydrochloride, buspirone hydrochloride]
dependence-inducing side effects [3]: lacks the dependence-inducing side effects | reduction of fear of open spaces in the elevated plus maze model ([1]; hydrochloride): effective; also recorded: reducing the fear of open spaces | reduction of fear (increased startle response) in the fear potentiated startle model ([2]; hydrochloride): effective at reducing the fear

N[C@@]1(C(=O)O)CC[C@@H](C(=O)O)C1 [1S,3R-1-aminocyclopentane-1,3-dicarboxylic acid]
action at PI-linked metabotropic glutamate receptors [4]: also acts at PI-linked metabotropic glutamate receptors | selectivity at negatively coupled cAMP-linked metabotropic glutamate receptors [4]: act non-selectively

N[C@@]1(C(=O)O)CS[C@@H]2[C@H](C(=O)O)[C@@H]21 (relative stereo) [1SR,4SR,5RS,6SR-4-amino-2-thiabicyclo[3.1.0]hexane-4,6-dicarboxylic acid]
efficacy in fear potentiated startle model of anxiety [5]: effective | selectivity as agonist at negatively coupled cAMP-linked metabotropic glutamate receptors [6]: act selectively as agonists

NC1(C(=O)O)CCC2C(C(=O)O)C21 (single isomer, unassigned; (+)) [(+)-2-Aminobicyclo[3.1.0]hexane-2,6-dicarboxylic Acid]
efficacy in fear potentiated startle model of anxiety [5]: effective | Nosepoke counts ([7]; oral, 3 mg/kg, mice, five-minute test period): significant increase | open arm activity ([7]; oral, 1, 3 and 10 mg/kg, mice, five-minute test period): significant increases | Closed arm activity counts ([7]; oral, any dose, mice, five-minute test period): not significantly altered | efficacy in elevated plus maze model of anxiety ([7]; statement in words): effective | selectivity as agonist at negatively coupled cAMP-linked metabotropic glutamate receptors [6]: acts selectively as an agonist

N[C@@]1(C(=O)O)CO[C@H]2[C@H](C(=O)O)[C@H]21 [1R,4R,5S,6R-4-amino-2-oxabicyclo[3.1.0]hexane-4,6-dicarboxylic acid]
efficacy in fear potentiated startle model of anxiety [5]: effective | selectivity as agonist at negatively coupled cAMP-linked metabotropic glutamate receptors [6]: act selectively as agonists

N[C@]1(C(=O)O)CO[C@@H]2[C@@H](C(=O)O)[C@@H]21 (relative stereo) [1SR,4SR,5RS,6SR-4-amino-2-oxabicyclo[3.1.0]hexane-4,6-dicarboxylic acid]
efficacy in fear potentiated startle model of anxiety [5]: effective | selectivity as agonist at negatively coupled cAMP-linked metabotropic glutamate receptors [6]: act selectively as agonists
